Assay results taken from US8835134B2, “Cycloastragenol monoglucoside, preparation, pharmaceutical composition and application thereof” (Tianjin Institute of Pharmaceutical Research, priority 2007, dated 2014).

Experiments:
Solubility = format: physicochemical

Row | Compound | oral absorption (Oral absorption) | solubility (Solubility)
1 | CC(C)(O)[C@@H]1CC[C@](C)([C@H]2[C@@H](O)C[C@@]3(C)C4C[C@H](OC5OC(CO)C(O)C(O)C5O)C5C(C)(C)[C@@H](O)CC[C@@]56C[C@@]46CC[C@]23C)O1 (stereo partly drawn) [CMG, Cycloastragenol-6-O-β-D-glucoside] | good oral absorption properties | 40-50 mg/100 ml
2 | CC(C)(O)[C@@H]1CC[C@](C)([C@H]2[C@@H](O)C[C@@]3(C)[C@@H]4C[C@H](O[C@@H]5O[C@H](CO)[C@@H](O)[C@H](O)[C@H]5O)[C@H]5C(C)(C)[C@@H](O[C@@H]6OC[C@@H](O)[C@H](O)[C@H]6O)CC[C@@]56C[C@@]46CC[C@]23C)O1 [astragaloside IV, reference compound] | – | 2-4 mg/100 ml
